The text below walks through data of US8951752B2, “N-demethyase genes and uses thereof” (priority 2011, dated 2015).

“And” between values parts separate entries of the source, which are not always exact repeats. Equal entries are not always repeated. Where two headings read alike, the source gives them in different places.

The target of assay [1] is T1, N-demethylase (Ndm: NdmA and NdmB subunits) (Pseudomonas putida, UniProt H9N289+H9N290).
T1 construct: lane 3, natural Ndm purified from P. putida CBB5; made in house; host or cells: purified from the natural strain Pseudomonas putida CBB5 (DEAE, Phenyl and Q Sepharose); not recombinant
T1 sequence (H9N289 1-351): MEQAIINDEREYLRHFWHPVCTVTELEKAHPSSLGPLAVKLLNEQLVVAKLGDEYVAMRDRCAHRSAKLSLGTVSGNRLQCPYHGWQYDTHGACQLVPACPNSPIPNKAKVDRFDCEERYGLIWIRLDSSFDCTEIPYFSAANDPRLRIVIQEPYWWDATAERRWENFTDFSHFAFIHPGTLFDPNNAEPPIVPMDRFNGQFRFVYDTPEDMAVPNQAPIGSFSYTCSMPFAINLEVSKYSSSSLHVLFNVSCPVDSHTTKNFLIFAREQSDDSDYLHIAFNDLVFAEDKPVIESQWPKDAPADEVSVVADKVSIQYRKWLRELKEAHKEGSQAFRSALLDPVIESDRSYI
T1 sequence (H9N290 1-355): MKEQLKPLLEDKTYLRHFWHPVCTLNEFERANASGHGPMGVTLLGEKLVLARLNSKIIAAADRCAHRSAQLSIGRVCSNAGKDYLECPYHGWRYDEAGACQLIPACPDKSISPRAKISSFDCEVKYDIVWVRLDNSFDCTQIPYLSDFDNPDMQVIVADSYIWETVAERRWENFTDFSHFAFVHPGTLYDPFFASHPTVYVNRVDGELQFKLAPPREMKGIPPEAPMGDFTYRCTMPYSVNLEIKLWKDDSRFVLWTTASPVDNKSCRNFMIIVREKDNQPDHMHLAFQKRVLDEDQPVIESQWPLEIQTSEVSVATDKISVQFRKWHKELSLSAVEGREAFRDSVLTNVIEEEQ
The assay can be described thus: Methylxanthine N-demethylase activity assay with purified Ndm plus partially purified Ccr. Type of assay: biochemical, Pseudomonas putida CBB5. Particulars: for Products identified: same products at 500 and 200 μM substrate; for Relative N-demethylase activity: relative to paraxanthine; for O-demethylation by Ndm: prolonged incubation. On the procedure:
Methylxanthine N-demethylase activity assay contained, in 1-mL total volume, 0.5 mM methylxanthine, 1 mM NADH, 50 μM Fe(NH4)2(SO4)2, and an appropriate amount of Ndm (0.08-7.5 mg protein, depending on purity of the protein) in 50 mM KPi buffer. Approximately 4 U of partially purified Ccr was added to reaction mixture when assaying Ndm in Phenyl Sepharose and Q Sepharose eluant-fractions (Ccr was not added to the enzyme reaction mixture when assaying Ndm activity in DEAE Sepharose eluant-fractions because Ccr co-eluted with Ndm). The reaction mixture was incubated at 30° C. with 300 rpm shaking on an incubating microplate shaker (VWR). Periodically, a small aliquot was sampled from the reaction mixture and mixed with equal volume of acetonitrile for quantifying concentrations of methylxanthines and N-demethylated products by HPLC. One unit of N-demethylase activity was defined as the consumption of one μmole methylxanthine per minute. When Ndm was coupled with the reductase and ferredoxin components of naphthalene dioxygenase of Pseudomonas sp. strain 9816 (Haigler & Gibson, 1990a; Haigler & Gibson, 1990b), 30 and 100 μg of the respective proteins were used. Spinach ferredoxin reductase and ferredoxin were also substituted for Ccr as described by Subramanian et al. (1979).
Determination of Kinetic Parameters. Apparent kinetic parameters of Ndm were determined by measuring the initial rate of disappearance (vo) of paraxanthine or 7-methylxanthine in 50 mM KPi buffer (pH 7.5) at 30° C. The paraxanthine and 7-methylxanthine concentrations ([S]) used in these experiments were from 20 to 500 μM. Substrates were incubated with Ndm and Ccr under standard conditions for 15 minutes. At 1, 5, 10, and 15 minutes, samples were removed from the reaction mixtures to quantitate substrate concentrations by HPLC. Plots of substrate concentrations against time were used to determine the initial rates of disappearance of substrates which were linear over 15 minutes. The apparent kinetic parameters were determined from Michaelis-Menten plots of Vo against [S] fitted with the equation
Determination of Oxygen Requirement. Oxygen consumption by Ndm during N-demethylation of paraxanthine was determined in a closed reaction vessel equipped with a Clarke-type oxygen electrode (Digitial Modell 0, Rank Brothers Ltd., Cambridge, England). The electrode was calibrated by using glucose oxidase (Sigma) and glucose for consumption of oxygen. Ndm activity assay was performed at 30° C. in a total volume of 1 ml of air-saturated 50 mM KPi buffer (pH 7.5) with 100 μM paraxanthine, 200 μM NADH, 50 μM Fe(NH4)2(SO4)2, 0.2 mg purified Ndm, and 4 U partially purified Ccr. The reaction was initiated by adding Ndm and partially purified Ccr after equilibration of all other reaction components for 3.3 minutes. After 13 minutes, a 100-μL aliquot was withdrawn from the reaction, immediately mixed with equal volume of acetonitrile to stop the enzyme reaction, and analyzed for N-demethylation product by HPLC. Background oxygen consumption, possibly due to NADH oxidase enzyme activity in the partially purified Ccr, was quantitated in control reactions containing all reaction components except paraxanthine.
Formaldehyde Determination. […] Twenty μL Nash reagent was added to 50 μl Ndm reaction sample plus 50 μl acetonitrile. This mixture was incubated at 51° C. for 12 minutes.

The next assay concerns the target T2, NdmA-His6 (Pseudomonas putida, UniProt H9N289).
T2 construct: made in house; host or cells: E. coli BL21(DE3)
T2 sequence (H9N289 1-351): T1 sequence (H9N289 1-351)
The assay can be described thus: Methylxanthine N-demethylase assay and kinetics, NdmA-His6 with His6-NdmD. It is filed as biochemical, Pseudomonas putida CBB5. The method, then: (§1) Methylxanthine N-demethylase activity assay contained, in 1-ml total volume, 0.5 mM methylxanthine, 1 mM NADH, 50 μM Fe(NH4)2(SO4)2, and an appropriate amount of NdmA-His6 or NdmB-His6 (7.4 μg-2.5 mg protein depending on substrate specificity) in 50 mM KPi buffer (pH 7.5). Approximately 4 U of partially purified reductase, prepared as described previously (Summers et al., 2011) or 59 U of purified His6-NdmD was added to reaction mixture. Catalase from bovine liver (4,000 U) was also added to reactions containing His6-NdmD. The reaction mixture was incubated at 30° C. with 300 rpm shaking on an incubating microplate shaker (VWR, Radnor, Pa.). Periodically, a small aliquot was sampled from the reaction mixture and mixed with equal volume of acetonitrile for quantifying concentrations of methylxanthines and N-demethylated products by HPLC. One unit of N-demethylase activity was defined as the consumption of one […] methylxanthine per minute.
(§2) Apparent kinetic parameters of NdmA-His6 and NdmB-His6 were determined by measuring the initial rate of disappearance (vo) of methylxanthines in 50 mM KPi buffer (pH 7.5) at 30° C. The initial substrate concentrations (ESI) used in these experiments were from 25 to 500 μM. Substrates were incubated with His6-NdmD plus either NdmA-His6 or NdmB-His6 under standard conditions for 15 minutes. At 1, 5, 10, and 15 minutes, samples were removed from the reaction mixtures to quantitate substrate concentrations by HPLC. Plots of substrate concentrations against time were used to determine the initial rates of disappearance of substrates which were linear over 15 minutes. The apparent kinetic parameters were determined from Michaelis-Menten plots of vo against [S] fitted with the equation

For the next assay, the target named is T3, NdmB-His6 (Pseudomonas putida, UniProt H9N290).
T3 construct: made in house; host or cells: E. coli BL21(DE3)
T3 sequence (H9N290 1-355): T1 sequence (H9N290 1-355)
The assay is described as follows: Methylxanthine N-demethylase assay and kinetics, NdmB-His6 with His6-NdmD. Type of assay: biochemical, Pseudomonas putida CBB5. Conditions: for N-demethylase activity: NdmB; for Km: 30° C., pH 7.5, ∞ where no activity. On the procedure:
as §1, §2

The target of assay [2] is T4, Caffeine dehydrogenase (Cdh) from CBB1 (Pseudomonas sp., UniProt D7REY3).
T4 sequence (D7REY3 1-791): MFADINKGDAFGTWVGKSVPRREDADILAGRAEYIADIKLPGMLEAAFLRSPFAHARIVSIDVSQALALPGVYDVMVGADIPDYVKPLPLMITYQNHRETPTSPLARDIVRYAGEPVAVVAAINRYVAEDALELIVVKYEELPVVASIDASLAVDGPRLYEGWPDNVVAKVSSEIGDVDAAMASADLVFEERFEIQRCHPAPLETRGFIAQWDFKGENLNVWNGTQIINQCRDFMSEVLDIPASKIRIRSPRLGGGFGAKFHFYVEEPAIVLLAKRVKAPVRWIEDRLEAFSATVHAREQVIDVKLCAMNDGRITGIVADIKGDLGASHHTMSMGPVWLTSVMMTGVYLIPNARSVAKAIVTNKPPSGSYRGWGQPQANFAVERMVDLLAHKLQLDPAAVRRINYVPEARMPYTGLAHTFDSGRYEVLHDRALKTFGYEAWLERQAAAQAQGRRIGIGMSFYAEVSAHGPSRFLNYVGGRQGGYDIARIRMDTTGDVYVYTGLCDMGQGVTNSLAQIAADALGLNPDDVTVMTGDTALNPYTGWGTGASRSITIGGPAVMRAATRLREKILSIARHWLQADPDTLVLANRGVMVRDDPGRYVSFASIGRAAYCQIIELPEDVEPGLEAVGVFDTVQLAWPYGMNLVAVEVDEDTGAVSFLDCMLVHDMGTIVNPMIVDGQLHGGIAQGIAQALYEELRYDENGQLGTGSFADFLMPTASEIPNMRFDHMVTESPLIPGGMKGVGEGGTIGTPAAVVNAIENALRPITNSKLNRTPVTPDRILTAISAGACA
T4 sequence (D7REY4 1-295 partner): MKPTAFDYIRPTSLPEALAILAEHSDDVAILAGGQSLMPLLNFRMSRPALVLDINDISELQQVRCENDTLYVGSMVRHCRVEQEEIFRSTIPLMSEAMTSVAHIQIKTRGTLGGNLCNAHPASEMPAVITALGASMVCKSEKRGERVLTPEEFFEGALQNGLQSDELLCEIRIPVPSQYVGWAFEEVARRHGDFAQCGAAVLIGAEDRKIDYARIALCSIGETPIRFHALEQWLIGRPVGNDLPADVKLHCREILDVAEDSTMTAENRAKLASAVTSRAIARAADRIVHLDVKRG
T4 sequence (D7REY5 1-167 partner): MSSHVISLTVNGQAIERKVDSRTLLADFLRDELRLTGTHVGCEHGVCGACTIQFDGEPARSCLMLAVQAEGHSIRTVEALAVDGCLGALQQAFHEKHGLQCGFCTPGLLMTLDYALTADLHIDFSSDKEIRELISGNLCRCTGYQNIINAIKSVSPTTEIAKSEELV
Conditions: cited from earlier work.

The test system of assay [3] is cell extracts prepared from P. putida CBB5. The assay is described as follows: NADH-dependent N-demethylase activity of CBB5 cell extracts. Type of assay: biochemical, Pseudomonas putida CBB5. Particulars: 0.5 mM substrate, 7.2 mg mL^−1 protein.
The mark [4] stands for this setting: 100 μM paraxanthine, 0.2 mg Ndm, 4 U Ccr, after 13 minutes.

Take `Cn1c(=O)[nH]c(=O)c2[nH]cnc21` [3-Methylxanthine, 3-methylxanthine]: in assay [1], the Products identified result was “xanthine”. The “Relative N-demethylase activity” value in assay [1] (substrate conc. 200 μM) was 68.9 ± 2.6; in assay [1] (substrate conc. 500 μM), 55.2 ± 6.0. The “N-demethylase activity” value on NdmA-His6 (NdmA) was “inactive”. The Km entry on NdmA-His6 (NdmA-His6, 30° C., pH 7.5, ∞ where no activity) is reported as “∞”. Besides, at NdmB-His6 (NdmB-His6), the Product entry was “Xanthine”.

For the compound `Cn1c(=O)[nH]c2nc[nH]c2c1=O` [1-methylxanthine], the “catalytic efficiency relative to theophylline” value on NdmA-His6 (NdmA) is on record as “two orders of magnitude lower”. On NdmA-His6 (NdmA-His6), the Product entry is listed as “Xanthine”. The “N-demethylase activity” value on NdmB-His6 is “no activity”. Besides, the Km entry on NdmB-His6 (NdmB-His6) is reported as “∞”.

As to `O=c1[nH]c(=O)c2[nH]cnc2[nH]1` [xanthine], in assay [1] (7.4 mU / 7.4 units of Ndm, 90 minutes), the “product formed from paraxanthine” value was 193.7 ± 4.0 µM and 193.7 ± 14.0 µM. Moreover, the N-demethylation product present in assay [1] (from paraxanthine, after 13 minutes) was roughly 20.3 µM. Further, in assay [2], the “activity of Cdh” value is “no activity and none”.

In the case of `COc1cc(C=O)ccc1O` [vanillin], in assay [1], the “O-demethylation by Ndm” value is “did not catalyze O-demethylation”.

As to `Cn1c(=O)c2[nH]cnc2n(C)c1=O` [Theophylline, 1,3-dimethylxanthine], the Products identified in assay [1] was 1- & 3-methylxanthine, and xanthine. Besides, the “Relative N-demethylase activity” value turned out to be 14.2 ± 1.6 in assay [1] (substrate conc. 200 μM) and 17.6 ± 1.0 in assay [1] (substrate conc. 500 μM). The “activity of Cdh” value in assay [2] is “no activity”; in assay [2] (substrate specificity study), 5%. In assay [3], the “degradation rate compared with paraxanthine” value was “significantly slower”.

Turning to `COc1cc(C(=O)O)ccc1O` [vanillate], in assay [1], the “O-demethylation by Ndm” value was “did not catalyze O-demethylation”.

On to `Cn1c(=O)[nH]c2ncn(C)c2c1=O` [Paraxanthine, 1,7-dimethylxanthine], for which the “N-demethylation by NdmC fraction” value in the assay with NdmC is on record as “not N-demethylated”. In assay [1] (setting [4]), the “oxygen consumed during N-demethylation” value amounted to 79.5 µM and the “paraxanthine N-demethylated” value turned out to be 60.2 µM. The Products identified entry in assay [1] is “xanthine and 7-methylxanthine,”. Moreover, the “Relative N-demethylase activity” value in assay [1] (substrate conc. 200 μM) turned out to be 100.0 ± 3.7. Also, the “Relative N-demethylase activity” value in assay [1] (substrate conc. 500 μM) is listed as 100.0 ± 3.1. Also, the “time to complete utilization” value in assay [3] (0.5 mM NADH) is “about 20 minutes”. For the same compound, the “N-demethylase activity” value on NdmB-His6 is on record as “no activity”. The Km result at NdmB-His6 (NdmB-His6) is given as “∞”.
